Experimental data reported in patent US20220110320A1, “ANTIMICROBIAL THIOURONIUM COPOLYMERS AND METHODS OF MAKING AND USING THE SAME” (priority 2020, published 2022).

Assay: 1H-NMR stability (hydrolysis) of VBT monomer
Assay type: physicochemical
Details: 3 weeks
Protocol: ^1H-NMR Studies. The VBT monomer (5 mg/mL) stability in D2O (with 0.5 μL DMSO as standard) and 0.5 M sodium acetate was analyzed using ^1H-NMR (Avance-600 MHz, Bruker). The VBT peak position and integration were monitored vs. time.
The monomer was recrystallized before use to remove any deprotected thiols. The PVBT polymer was prepared using radical polymerization in TFE and was characterized using NMR spectroscopy. Because the thiouronium group is usually employed as a precursor to thiols, via base-induced hydrolysis, the stability of the VBT monomer under neutral and mildly basic conditions was assessed by recording ^1H-NMR spectra of VBT in D20 and in 0.5 M NaAc (pH≈9.2) for 3 weeks. […] In fact, hydrolysis is typically carried out at much higher pH.

Compound: C=Cc1ccc(CSC(=N)N)cc1.Cl [VBT]
- Hydrolysis of monomer by 1H-NMR (in 0.5 M NaAc (pH≈9.2)): no signs of hydrolysis
- Hydrolysis of monomer by 1H-NMR (in D2O): no signs of hydrolysis
